In ChEMBL document CHEMBL1828590 (J Med Chem, 2011):

Assays:
Mus musculus [1] = assay: Toxicity in nude BALB/c mouse xenografted with human A2780 cells assessed as maximum body weight loss at 200 mg/kg, po QD for 21 days measured on day 13; format: organism-based; set-up: dose 200 mg/kg, route oral; details: in vivo, 504 h
[2] = Half life in dog liver microsomes; format: ADME, Canis lupus familiaris, Microsome
Mus musculus [3] = assay: Toxicity in athymic nu/nu Harlan mouse xenografted with human HCT116 cells assessed as body weight loss at 200 mg/kg, po QD for 21 days measured on day 8; format: organism-based, HCT-116; set-up: dose 200 mg/kg, route oral; details: in vivo, 504 h
Mus musculus [4] = assay: Toxicity in athymic nu/nu Harlan mouse xenografted with human HCT116 cells assessed as body weight loss at 300 mg/kg, po QD for 21 days measured on day 19; format: organism-based, HCT-116; set-up: dose 300 mg/kg, route oral; details: in vivo, 504 h
Mus musculus [5] = assay: Toxicity in nude BALB/c mouse xenografted with human HCT116 cells assessed as body weight loss at 200 mg/kg, po QD for 21 days measured on day 19; format: organism-based, HCT-116; set-up: dose 200 mg/kg, route oral; details: in vivo, 504 h
[6] = Half life in rat liver microsomes; format: ADME, Microsome
[7] = Kinetic solubility of the compound at pH 7 with […] DMSO; format: physicochemical; details: buffer, read-out: Kinetic_solubility
[8] = Half life in mouse liver microsomes; format: ADME, Microsome; details: liver microsomes
Mus musculus [9] = assay: Toxicity in athymic nu/nu Harlan mouse xenografted with human HCT116 cells assessed as body weight loss at 200 mg/kg, po QD for 21 days measured on day 19; format: organism-based, HCT-116; set-up: dose 200 mg/kg, route oral; details: in vivo, 504 h
COLO 205 = assay: Antiproliferative activity against human COLO205 cells after 96 hrs by celltiter 96 assay; format: functional, cell-based; details: COLO 205, 96 h
[10] = Half life in human liver microsomes; format: ADME, Microsome
[11] = Oral bioavailability in nude BALB/c mouse at 50 mg/kg; format: ADME, organism-based; details: in vivo
Mus musculus [12] = assay: Toxicity in athymic nu/nu Harlan mouse xenografted with human HCT116 cells assessed as mouse survival at 200 mg/kg, po QD for 21 days measured on day 22; format: organism-based, HCT-116; set-up: dose 200 mg/kg, route oral; details: in vivo, 504 h
Mus musculus [13] = assay: Toxicity in nude BALB/c mouse xenografted with human HCT116 cells assessed as mouse survival at 200 mg/kg, po QD for 21 days measured on day 22; format: organism-based, HCT-116; set-up: dose 200 mg/kg, route oral; details: in vivo, 504 h
[14] = Apparent permeability from apical to basolateral side of human Caco2 cells; format: ADME, cell-based; details: Caco-2
HCT-116 [15] = assay: Antitumor activity against human HCT116 cells xenografted in athymic nu/nu Harlan mouse assessed as tumor growth inhibition at 50 mg/kg, po qd for 21 days measured on day 22; format: functional; details: read-out: TGI
Mus musculus [16] = assay: Toxicity in athymic nu/nu Harlan mouse xenografted with human HCT116 cells assessed as mouse survival at 50 mg/kg, po QD for 21 days measured on day 22; format: organism-based, HCT-116; set-up: dose 50 mg/kg, route oral; details: in vivo, 504 h
HCT-116 [17] = assay: Antitumor activity against human HCT116 cells xenografted in athymic nu/nu Harlan mouse assessed as tumor growth inhibition at 100 mg/kg, po qd for 21 days measured on day 22; format: functional; details: read-out: TGI
Mus musculus [18] = assay: Toxicity in athymic nu/nu Harlan mouse xenografted with human HCT116 cells assessed as body weight loss at 100 mg/kg, po QD for 21 days measured on day 22; format: organism-based, HCT-116; set-up: dose 100 mg/kg, route oral; details: in vivo, 504 h
[19] = Apparent permeability from basolateral to apical side of human Caco2 cells; format: ADME, cell-based; details: Caco-2
Mus musculus [20] = assay: Toxicity in athymic nu/nu Harlan mouse xenografted with human HCT116 cells assessed as body weight loss at 50 mg/kg, po QD for 21 days measured on day 5; format: organism-based, HCT-116; set-up: dose 50 mg/kg, route oral; details: in vivo, 504 h
HCT-116 [21] = assay: Antitumor activity against human HCT116 cells xenografted in athymic nu/nu Harlan mouse assessed as tumor growth inhibition at 25 mg/kg, po qd for 21 days measured on day 22; format: functional; details: read-out: TGI
[22] = 1-Octanol-sodium phosphate buffer distribution coefficient, log D of the compound at pH 7.4; format: physicochemical; details: 1-octanol/sodium phosphate buffer, read-out: logD
Mus musculus [23] = assay: Toxicity in athymic nu/nu Harlan mouse xenografted with human HCT116 cells assessed as mouse survival at 25 mg/kg, po QD for 21 days measured on day 22; format: organism-based, HCT-116; set-up: dose 25 mg/kg, route oral; details: in vivo, 504 h
Mus musculus [24] = assay: Toxicity in athymic nu/nu Harlan mouse xenografted with human HCT116 cells assessed as mouse survival at 100 mg/kg, po QD for 21 days measured on day 22; format: organism-based, HCT-116; set-up: dose 100 mg/kg, route oral; details: in vivo, 504 h
Mus musculus [25] = assay: Toxicity in athymic nu/nu Harlan mouse xenografted with human HCT116 cells assessed as body weight loss at 200 mg/kg, po QD for 7 days measured on day 5; details: in vivo, 168 h
HCT-116 [26] = assay: Antitumor activity against human HCT116 cells xenografted in athymic nu/nu Harlan mouse assessed as tumor growth inhibition at 200 mg/kg, po qd for 7 days measured on day 22; format: functional; details: read-out: TGI
Mus musculus [27] = assay: Toxicity in athymic nu/nu Harlan mouse xenografted with human HCT116 cells assessed as body weight loss at 50 mg/kg, po QD for 21 days measured on day 5; details: in vivo, 504 h
HCT-116 [28] = assay: Antitumor activity against human HCT116 cells xenografted in athymic nu/nu Harlan mouse assessed as tumor growth inhibition at 50 mg/kg, po qd for 21 days measured on day 22; details: HCT-116, po, read-out: TGI
Mus musculus [29] = assay: Toxicity in athymic nu/nu Harlan mouse xenografted with human HCT116 cells assessed as body weight loss at 100 mg/kg, po QD for 7 days measured on day 5; format: organism-based, HCT-116; set-up: dose 100 mg/kg, route oral; details: in vivo, 168 h
HCT-116 [30] = assay: Antitumor activity against human HCT116 cells xenografted in athymic nu/nu Harlan mouse assessed as tumor growth inhibition at 100 mg/kg, po qd measured on day 22; details: HCT-116, po, read-out: TGI
Mus musculus [31] = assay: Toxicity in athymic nu/nu Harlan mouse xenografted with human HCT116 cells assessed as mouse survival at 100 mg/kg, po QD for 7 days measured on day 22; format: organism-based, HCT-116; set-up: dose 100 mg/kg, route oral; details: in vivo, 168 h
Mus musculus [32] = assay: Toxicity in athymic nu/nu Harlan mouse xenografted with human HCT116 cells assessed as mouse survival at 50 mg/kg, po QD for 7 days measured on day 22; format: organism-based, HCT-116; set-up: dose 50 mg/kg, route oral; details: in vivo, 168 h

With `O=C(CCCCCCC(=O)Nc1ccccc1)NO` [VORINOSTAT] the Activity (Mus musculus [1]) was 9.3%, the half-life [2] was > 60 min and the Activity (Mus musculus [3]) was 8.9%. The Activity (Mus musculus [4]) was 5.5%, the Activity (Mus musculus [5]) was 1.9% and the half-life [6] was > 60 min. The solubility kinetic [7] was > 200 µM, the half-life [8] was > 60 min and the Activity (Mus musculus [9]) was 4.6%. The IC50 (COLO 205) was 2120 nM, the half-life [10] was > 60 min and the bioavailability [11] was 8.3%. For the same compound, the Activity (Mus musculus [12]) was “Non-toxic” and the Activity (Mus musculus [13]) was “Non-toxic”.

For `CN(C)CC(C)(C)Cn1c(CC(C)(C)C)nc2cc(/C=C/C(=O)NO)ccc21.Cl.Cl`, the Papp A→B [14] was 19.4 ×10⁻⁶ cm/s, the inhibition in vivo at 50 mg/kg (HCT-116 [15]) was 55% and the Activity (Mus musculus [16]) was “Non-toxic”. For the same compound, the inhibition in vivo at 100 mg/kg (HCT-116 [17]) was 85%, the half-life [2] was > 60 min and the Activity (Mus musculus [18]) was 13.1%. For the same compound, the Papp B→A [19] was 14.9 ×10⁻⁶ cm/s, the half-life [6] was 41 min and the solubility kinetic [7] was > 200 µM. The half-life [8] was 20 min, the Activity (Mus musculus [20]) was 5.6% and the inhibition in vivo at 25 mg/kg (HCT-116 [21]) was 30%. For the same compound, the half-life [10] was > 60 min, the logD [22] was 2.41 and the Activity (Mus musculus [23]) was “Non-toxic”. For the same compound, the Activity (Mus musculus [24]) was “Non-toxic”.

Compound `CCCCCCc1nc2cc(/C=C/C(=O)NO)ccc2n1CCN(C)C.Cl.Cl` has a Papp A→B [14] of 9.59 ×10⁻⁶ cm/s, an Activity (Mus musculus [25]) of 18% and an inhibition in vivo at 200 mg/kg (HCT-116 [26]) of 53%. It also gave an Activity (Mus musculus [27]) of 1.9%, a half-life [2] of 10 min and an inhibition in vivo at 50 mg/kg (HCT-116 [28]) of 17%. The Papp B→A [19] was 26 ×10⁻⁶ cm/s, the half-life [6] was 10 min and the solubility kinetic [7] was > 200 µM. The Activity (Mus musculus [29]) was 4.9%, the half-life [8] was 16 min and the half-life [10] was > 60 min. The inhibition in vivo at 100 mg/kg (HCT-116 [30]) was 50%, the Activity (Mus musculus [31]) was “Non-toxic” and the Activity (Mus musculus [32]) was “Non-toxic”.
